The source made the active and inactive calls. No cut-off for these calls is given here.

For experiment [1], the species on record is Oryctolagus cuniculus. The experiment in a line: Vasorelaxant activity in rabbit aorta assessed as inhibition of norepinephrine-induced contractile response at 100 uM. It counts as functional, tissue-based.
The nature of experiment [2]: Vasorelaxant activity in rabbit aorta assessed as inhibition of KCl-induced contractile response at 100 uM. As to conditions: Oryctolagus cuniculus. It counts as functional.

Turning to `COc1cc(O)cc([C@@H]2OC[C@@H]3[C@H]2C(=O)O[C@H]3c2cc(O)c(OC)c(OC)c2)c1` [GRAMINONE B], the outcome in experiment [1] was inactive. For the same compound, the inhibition (commonly the drop in the measured response relative to a control, in per cent) at 100 µM in experiment [2] stood at 50%.

Source of the values: ChEMBL document CHEMBL1148094, “Graminone B, a novel lignan with vasodilative activity from Imperata cylindrica” (1994).
